From patent publication US20130079305A1, “3-SUBSTITUTED VINYLBORONATES AND USES THEREOF” (Yissum Research Development Company of the Hebrew …, priority 2010, published 2013) come the findings set out here.

In one assay the test system is ARH-77 (myeloma) cells. Put plainly: MTT assay, ARH-77 (myeloma) cells. The settings on record: ARH-77 cells; for IC50: Homo sapiens, 72 h incubation. The class given is cell-based. On the procedure:
(§1) ARH-77 (myeloma) and HT-29 (colon cancer) cells were grown and counted, and were thereafter plated in 96-wells plates to get 0.1×10^6 cells/well. The plates were left in the incubator overnight for cells attachment and the tested compounds were then added to the cells. The tested concentrations of the compounds were 1, 2, 5, 10, 20, 50 and 100 μM. The compounds were incubated with the cells for 24 hours, 48 hours or for 72 hours, and were thereafter subjected to the MTT assay.

For assay [1], the system named is HT-29 (colon cancer) cells. Put plainly: MTT assay, HT-29 (colon cancer) cells. The class given is cell-based. The conditions noted are these: Homo sapiens, HT-29 cells, 72 h incubation. On the procedure: as §1
In general terms: Tetrazolium dyes change colour on reduction, which living cells bring about.

Broadly, the IC50 is the midpoint of a concentration-inhibition curve. The low end stands for greater potency in that assay, the high end for weaker potency in that assay. `CCC/C(=C\B1OC(C)(C)C(C)(C)O1)C(O)(c1ccccc1)C1CC1` (centres unmarked) [Compound E2]: the values for the IC50 (in the assay on ARH-77 (myeloma) cells; in assay [1]) were 54 µM and 85 µM, respectively.
The corresponding values for `CCC/C(=C\B1OC(C)(C)C(C)(C)O1)C1(O)CCCc2ccccc21` (centres unmarked) [Compound E3] are 65 µM and 85 µM.
For `CCC/C(=C\B1OC(C)(C)C(C)(C)O1)C(O)c1ccccc1` (centres unmarked) [Compound E4], the “IC50, ARH-77, 72 h incubation” value in the assay on ARH-77 (myeloma) cells is listed as “not active”. For the same compound, the IC50 in assay [1] was over 100 µM.
`CCCCCCC(C)(O)/C(=C/B1OC(C)(C)C(C)(C)O1)CCC` (centres unmarked) [Compound E5]: the results for the IC50 (in the assay with ARH-77 (myeloma) cells; in assay [1]) were 30 µM and 55 µM, respectively.
For `CCCCC(C)(O)/C(=C/B1OC(C)(C)C(C)(C)O1)CCC` (centres unmarked) [Compound E6] the same measures were 54 µM and 80 µM.
Take `CCCCCCCC/C(=C\B1OC(C)(C)C(C)(C)O1)C(O)(c1ccccc1)C1CC1` (centres unmarked) [Compound E7]: the IC50 in the assay with ARH-77 (myeloma) cells was 6 µM; in assay [1], 15 µM.
Take `CCCCCCCC/C(=C\B1OC(C)(C)C(C)(C)O1)C(C)(O)CCCCCC` (centres unmarked) [Compound E8]: the IC50 is 78 µM with ARH-77 (myeloma) cells and over 100 µM in assay [1].
